Literature values as cited in patent publication US11571438B1, “Nutraceutical compositions to up-regulate SIRT1 and methods of use” (priority 2022, dated 2023).

Legend:
AMPK = details: individual administration
mTOR = details: individual administration

Question: For `COc1ccc2cc3[n+](cc2c1OC)CCc1cc2c(cc1-3)OCO2` [berberine], which AMPK activation (AMPK) is on record?
Answer: Its AMPK activation is “statistically significant increase”.

Question: And the mTOR inhibition (mTOR)?
Answer: The mTOR inhibition was “statistically significant increase”.

Question: Which AMPK activation (AMPK) does the source give for `COc1cc(/C=C/C(=O)O)ccc1O` [ferulic acid] here?
Answer: Its AMPK activation is “statistically significant increase”.

Question: And the mTOR inhibition (mTOR)?
Answer: Its mTOR inhibition is “statistically significant increase”.

Question: What does the source list for `O=c1c(O)c(-c2ccc(O)c(O)c2)oc2cc(O)cc(O)c12` [quercetin]?
Answer: AMPK activation (AMPK): statistically significant increase; mTOR inhibition (mTOR): statistically significant increase

Question: Which AMPK activation (AMPK) does the source give for `OCCc1ccc(O)cc1` [tyrosol] here?
Answer: Its AMPK activation is “statistically significant increase”.

Question: What about the mTOR inhibition (mTOR) of the same molecule?
Answer: The mTOR inhibition was “statistically significant increase”.
